The values below come from ChEMBL document CHEMBL1201862, “PubChem BioAssay data set” (2004).

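Compound exposure: 48 hours, 5 concentrations, 96-well plates. GI50 = concentration required for 50% inhibition of growth.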 Calls of active or inactive are those of the source. Rule as the data show it: active = GI50 up to about 1.1 µM and inactive = higher. Some results are limits rather than exact numbers.

Holding throughout (test): NCI anticancer screen, dose series, 48 h
The test system of test [1] is BT-549.
Test [2] has as its system DU-145.
In test [3] the test system is HOP-92.
Test [4] deals with Hs-578T.
Test [5] relates to MDA-N.
For test [6], the system named is Malme-3M.
The test system of test [7] is NCI-H226.
Test [8] concerns NCI-H460.
In test [9] the test system is OVCAR-3.
Test [10] deals with OVCAR-4.
In test [11] the test system is RPMI-8226.
The subject of test [12] is SK-OV-3.
Test [13] deals with SN12C.
In test [14] the test system is SNB-19.
For test [15], the system named is SNB-75.
Test [16] concerns TK-10.
Test [17] deals with U-251.
Test [18] concerns UACC-257.
In test [19] the test system is HL-60.

As to `CCCCN1C(=O)c2c(-c3sccc3N)sc(-c3sccc3N)c2C1=O`, the GI50 in test [1] is 29.4 µM (inactive); in [2] it was 21.4 µM (inactive); in test [3], 52 µM (inactive); in [4] it was 16.9 µM (inactive); in test [5], 4.94 µM (inactive); in [6], 21.6 µM (inactive). For the same compound, the GI50 in [7] was 0.713 µM (active); in test [8], 26.1 µM (inactive); in test [9], 16 µM (inactive); in test [10], 10.9 µM (inactive); in test [11], 4.47 µM (inactive); in test [12] it was 10.6 µM (inactive). In addition, the GI50 is 19 µM (inactive) in test [13]; 18.9 µM (inactive) in test [14]; 10.4 µM (inactive) in test [15]; 22.3 µM (inactive) in test [16]; 12.9 µM (inactive) in [17]; 56.1 µM (inactive) in test [18].
As for `CCOc1ccccc1/C=C1\NC(=O)N(/C=C2\C(=O)Oc3ccccc3C2=O)C1=O`, the GI50 is 50.9 µM (inactive) in [1]; 44.5 µM (inactive) in [2]; 20.5 µM (inactive) in [19]; 21 µM (inactive) in [3]; 46.7 µM (inactive) in test [4]; 42 µM (inactive) in test [5]. Further, the GI50 was 35.5 µM (inactive) in test [7]; 39.4 µM (inactive) in test [8]; 30.8 µM (inactive) in [9]; 44.2 µM (inactive) in test [10]; 59.7 µM (inactive) in test [12]; 43.6 µM (inactive) in test [13]. Besides, the GI50 in test [14] was 61.7 µM (inactive); in [15] it was 69.2 µM (inactive); in [16] it was 24.8 µM (inactive); in [17] it was 47 µM (inactive); in [18], 40.1 µM (inactive).
As for `N=C(N)SCc1cc(Cl)cc(Cl)c1O`, the GI50 in [1] was 18.7 µM (inactive); in test [2], 17.6 µM (inactive); in test [19], 3.21 µM (inactive); in test [3], 15.7 µM (inactive); in test [4] it was 20.4 µM (inactive); in test [5], 16.4 µM (inactive). Moreover, the GI50 in test [6] was 21.6 µM (inactive); in test [7] it was 20.3 µM (inactive); in test [8], 18.1 µM (inactive); in [9], 17.2 µM (inactive); in test [10] it was 23.3 µM (inactive); in test [11], 19.8 µM (inactive). The GI50 is 36.1 µM (inactive) in [12]; 17.4 µM (inactive) in test [13]; 18.2 µM (inactive) in test [14]; 18.8 µM (inactive) in [16]; 15.7 µM (inactive) in test [17]; 16.9 µM (inactive) in [18].
On to `C=CCNC1=C2C[C@@H](C)C[C@@H](OC)[C@H](OC(=O)CCCCN)[C@H](C)/C=C(\C)[C@@H](OC(N)=O)[C@H](OC)/C=C\C=C(/C)C(=O)NC(=CC1=O)C2=O`, for which the GI50 in test [1] was 19 µM (inactive); in test [2], 6.47 µM (inactive); in [19], 11.7 µM (inactive); in test [3], 18.8 µM (inactive); in test [4], 25.6 µM (inactive); in test [5] it was 8.55 µM (inactive). In addition, the GI50 in test [6] is 6.71 µM (inactive); in test [8] it was 11.6 µM (inactive); in test [9] it was 3.22 µM (inactive); in [10] it was 15.8 µM (inactive); in test [11], 9.04 µM (inactive); in test [12], 6.31 µM (inactive). The GI50 in [13] was 13 µM (inactive); in [14], 11.3 µM (inactive); in test [15] it was 5.51 µM (inactive); in [16], 15 µM (inactive); in test [17], 10.9 µM (inactive); in [18], 6.17 µM (inactive).
For `O=C1Nc2ccccc2/C1=N/N=c1\cccc[nH]1`, the GI50 in test [1] was 43.6 µM (inactive); in [2], 21 µM (inactive); in test [19] it was 16 µM (inactive); in test [4], 39.1 µM (inactive); in test [5], > 100 µM (inactive); in [7] it was 16.1 µM (inactive). Besides, the GI50 in test [8] is 14.6 µM (inactive); in test [9], 48.8 µM (inactive); in test [10] it was 20.2 µM (inactive); in test [11] it was 20.6 µM (inactive); in test [12], 18.6 µM (inactive); in [13], 29.2 µM (inactive). Also, the GI50 in test [14] was 30.7 µM (inactive); in test [15], 21.5 µM (inactive); in test [16], 22.5 µM (inactive); in test [17], 19 µM (inactive); in [18], 41.8 µM (inactive).
`COC(=O)C(O)P(=O)(OC)OC` (centres undefined): the GI50 in test [1], in [2], in test [19], in test [3], in test [4] and in [5] was > 100 µM (inactive) throughout. Besides, the GI50 in test [6], in [7], in test [9], in [10], in test [11] and in test [12] was > 100 µM (inactive) each time. In addition, the GI50 in [13], in test [14], in test [17] and in test [18] was > 100 µM (inactive) in each case.
`CC(C#N)(NO)C(C)(C#N)NO` (centres undefined): the GI50 in [1], in test [2], in test [19], in [4], in test [5] and in test [6] was > 100 µM (inactive) each time. The GI50 in [7] is 97.9 µM (inactive); in test [8] it was > 100 µM (inactive); in [9] it was > 100 µM (inactive); in test [10], > 100 µM (inactive); in test [11] it was > 100 µM (inactive); in test [12] it was > 100 µM (inactive). Besides, the GI50 in [13], in test [14], in [15], in [16], in [17] and in [18] was > 100 µM (inactive) each time.
On to `CCN(CC)CCCC(C)Nc1ccnc(/C=C/c2ccc(Cl)cc2)c1` (centres undefined), for which the GI50 is 2.19 µM (inactive) in [1]; 9.08 µM (inactive) in test [2]; 2.07 µM (inactive) in test [19]; 1.26 µM (inactive) in [3]; 2.26 µM (inactive) in test [4]; 1.83 µM (inactive) in [5]. Besides, the GI50 in test [6] is 1.21 µM (inactive); in [8] it was 2.69 µM (inactive); in [9], 1.63 µM (inactive); in [10], 3.51 µM (inactive); in [11], 1.72 µM (inactive); in test [12], 3.61 µM (inactive). The GI50 is 2.07 µM (inactive) in test [13]; 3.4 µM (inactive) in test [14]; 1.77 µM (inactive) in test [15]; 2.38 µM (inactive) in test [16]; 1.66 µM (inactive) in test [17]; 2.02 µM (inactive) in [18].
Consider `C=C1C(=O)OC2C3C(=C)[C@@H](OC(C)=O)CC3C(C)=CC(OC(=O)C(C)(OC(C)=O)C(C)OC(C)=O)[C@@H]12` (some centres undefined), for which the GI50 in test [1] was 18.5 µM (inactive); in test [2], 16.1 µM (inactive); in test [19], 2.52 µM (inactive); in test [4], 23.4 µM (inactive); in test [5] it was 14.9 µM (inactive); in test [6] it was 13.6 µM (inactive). Moreover, the GI50 in test [7] was 23.8 µM (inactive); in [8], 23.6 µM (inactive); in test [9], 13.2 µM (inactive); in test [10], 13.3 µM (inactive); in test [11], 6.55 µM (inactive); in test [12], 83.2 µM (inactive). The GI50 in [13] is 15.7 µM (inactive); in [14], 85.7 µM (inactive); in test [15] it was 18.9 µM (inactive); in test [16], 14.1 µM (inactive); in test [17], 16.5 µM (inactive); in test [18], 14.9 µM (inactive).
Turning to `NCCNCCNc1ccc(NCCNCCN)c2c1C(=O)c1c(O)ccc(O)c1C2=O`, the GI50 is > 100 µM (inactive) in test [1]; > 100 µM (inactive) in [2]; > 100 µM (inactive) in test [3]; 68.7 µM (inactive) in test [4]; > 100 µM (inactive) in test [5]; > 100 µM (inactive) in [6]. Also, the GI50 is > 100 µM (inactive) in [7]; 8.75 µM (inactive) in test [8]; > 100 µM (inactive) in test [9]; > 100 µM (inactive) in [10]; > 100 µM (inactive) in [11]; > 100 µM (inactive) in test [12]. The GI50 in test [13], in test [14], in test [15], in test [16], in [17] and in [18] was > 100 µM (inactive) in each case.
Turning to `c1ccc2c3c(c(N4CCNCC4)nc2c1)CCCC3`, the GI50 in test [1] is 13.9 µM (inactive); in [2], 15.3 µM (inactive); in test [19], 8.93 µM (inactive); in test [3], 14.2 µM (inactive); in test [4], 27.7 µM (inactive); in test [5], 13.9 µM (inactive). The GI50 in test [6] is 19.9 µM (inactive); in test [7], 14.8 µM (inactive); in [8] it was 15.1 µM (inactive); in [9] it was 15.5 µM (inactive); in test [10], 16 µM (inactive); in [12] it was 18.8 µM (inactive). Further, the GI50 was 16.3 µM (inactive) in test [13]; 14.6 µM (inactive) in test [14]; 13.9 µM (inactive) in test [15]; 13.7 µM (inactive) in [16]; 13.4 µM (inactive) in test [17]; 8.15 µM (inactive) in test [18].
